Consider 16 compounds from article PMC524486, “Branched-chain amino acid aminotransferase and methionine formation in Mycobacterium tuberculosis” (BMC Microbiology, 2004).

Assay [1] relates to M. tuberculosis branched-chain aminotransferase. In kind it is biochemical, Mycobacterium tuberculosis H37Rv. The settings on record: for amino donor activity for Met formation from KMTB: 2 mM individual amino acid, 1 mM KMTB, 30 min at 37°C (Figure 5); for Km: read-out: Apparent Km.
The target in assay [2] is M. tuberculosis BCAT (Mycobacterium tuberculosis, UniProt P9WQ75). Briefly: Inhibition of BCAT-catalysed Met formation by aminooxy compounds. The class given is biochemical, Mycobacterium tuberculosis H37Rv. The settings on record: for inhibition of Met formation, ranking at 0.1 mM / inhibition of Met formation: 2.0 mM leucine; for inhibition of Met formation, ranking at 0.1 mM: 0.1 mM inhibitor (Figure 6); for type of inhibition: fit to competitive, uncompetitive and mixed inhibition equations; for inhibition of Met formation: 0.1 or 1.0 mM inhibitor (Figure 6). As to the method:
Aminotransferase activities were assayed by an HPLC method. 5 or 10 μl of recombinant enzyme was added to 100 μl of substrate mix (100 mM PO4 (pH 7.4)/50 μM PLP/various concentrations of amino acid/various concentrations of keto acid) and incubated for 30 min at 37°C. The samples were then stored at -20°C until analysis by HPLC. All samples were analysed by pre-column derivatisation and reverse-phase HPLC. 10 μl of sample was mixed with 50 μl of 400 mM borate pH 10.5 and then with 10 μl of 10 mg/ml o-phthalaldehyde/12 μl/ml mercaptopropionate/400 mM borate pH 10.5 prior to the injection of 7.0 μl onto a 2.1 × 200 mm ODS-AA column (Agilent; Mississauga, ON, Canada). The column was eluted using 2.72 mg/ml sodium acetate pH 7.2/0.018% v/v triethylamine/0.3% v/v tetrahydrofuran as Buffer A and 2.72 mg/ml sodium acetate pH 7.2/40% v/v methanol/40% v/v acetonitrile as Buffer B with a linear gradient of 0 – 17% B over 16 min followed by a linear gradient of 17–100% B over 1 min and 6.0 min at 100% B. The flow rate was 0.45 ml/min from 0 – 16 min and 0.80 ml/min from 17–30 min. The elution of derivatised amino acids was monitored at 338 nm and fluorometrically with an excitation of 338 nm and an emission of 450 nm. All separations were performed on an Agilent 1100 HPLC equipped with an autosampler, variable wavelength ultraviolet/visible spectrophotometric detector, fluorescence detector, and Chemstation operating system.
Initial inhibition studies screened 13 aminooxy compounds against M. tuberculosis BCAT using 2.0 mM Leu/1.0 mM KMTB/0.1 or 1.0 mM inhibitor in the enzyme incubation. […] These reactions involved 0.5, 1.0, 2.0, or 3.0 mM Leu and 1.0 mM KMTB in the reaction mixture together with 0, 25, 50, 75, 100, 150, 200 μM of inhibitor. The Ki values were determined by non-linear curve fitting with the Scientist software programmed with competitive, uncompetitive, and mixed inhibition equations [25].

Assay [3] relates to M. marinum. Nature of the assay: In vitro growth inhibition, microtitre doubling dilution, A650 nm. The class given is cell-based, M. marinum Aronson (ATCC927).
For assay [4], the system named is M. tuberculosis. The assay is described as above. The class given is cell-based, M. tuberculosis H37Rv.
The test system of assay [5] is M. tuberculosis. The settings on record: older study, other medium, cited from earlier work.
The mark [6] stands for this setting: varying substrate, 10 mM cosubstrate KMTB, Met formation.
Setting [7] is: varying substrate, 10 mM cosubstrate KG, Glu formation.
[8] abbreviates: varying keto acid substrate, 10 mM cosubstrate Leu.
The mark [9] stands for this setting: 0.5-3.0 mM Leu, 1.0 mM KMTB, 0-200 μM inhibitor.
Where [10] appears, read: read-out: Kic (competitive component of mixed-type inhibition), 0.5-3.0 mM Leu, 1.0 mM KMTB, 0-200 μM inhibitor.
[11] abbreviates: M. marinum, n = 8, 8 days at 30°C, Middlebrook 7H9.
Setting [12] is: M. marinum, n = 8, 8 days at 30°C, Middlebrook 7H9, read-out: IC50.
[13] abbreviates: M. tuberculosis, n = 6, 14 days at 37°C, Middlebrook 7H9.
The mark [14] stands for this setting: M. tuberculosis, n = 6, 14 days at 37°C, Middlebrook 7H9, read-out: IC50.
The mark [15] stands for this setting: Mycobacterium tuberculosis, 336 h.

Molecules are shown by their SMILES. Converted amounts (≈) assume the structure as drawn. Where two headings read alike, the source gives them in different places.

Sequence of M. tuberculosis BCAT (P9WQ75 whole entry, looked up): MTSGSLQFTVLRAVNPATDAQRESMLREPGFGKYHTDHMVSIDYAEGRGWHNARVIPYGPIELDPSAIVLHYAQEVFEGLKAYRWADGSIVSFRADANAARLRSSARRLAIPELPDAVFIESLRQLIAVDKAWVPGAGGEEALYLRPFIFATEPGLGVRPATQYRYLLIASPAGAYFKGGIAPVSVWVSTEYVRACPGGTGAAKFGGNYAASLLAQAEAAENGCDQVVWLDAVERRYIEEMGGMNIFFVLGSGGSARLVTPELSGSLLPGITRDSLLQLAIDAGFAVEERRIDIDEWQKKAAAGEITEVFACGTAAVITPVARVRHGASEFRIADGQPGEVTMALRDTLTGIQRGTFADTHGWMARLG

With `N[C@@H](CCC(=O)O)C(=O)O` [Glu, glutamate], the “amino donor activity for Met formation from KMTB” value (from here on “amino donor activity”) in assay [1] was “also active as amino donors”. Also, in assay [1] (setting [6]), the “Apparent Vmax” value was 5.70 ± 1.20 μmol/min/mg protein and the Michaelis constant (Km) amounted to 9530 ± 3430 µM.

With `CC[C@H](C)[C@H](N)C(=O)O` [Ile, Isoleucine], in assay [1], the “amino donor activity” value is reported as “most effective substrates”. Besides, in assay [1] (setting [7]), the “Apparent Vmax” value is 14.35 ± 1.08 μmol/min/mg protein and the Michaelis-Menten constant (Km) was 6160 ± 1140 µM. Also, in assay [1] (setting [6]), the “Apparent Vmax” value was 4.28 ± 0.32 μmol/min/mg protein and the Michaelis-Menten constant (Km) is 2850 ± 560 µM.

In the case of `O=C(O)CCC(=O)C(=O)O` [KG, ketoglutarate], in assay [1] (setting [8]), the “Apparent Vmax” value is reported as 12.80 ± 1.12 μmol/min/mg protein and the Michaelis-Menten constant (Km) is 6950 ± 1440 µM.

On to `CSCCC(=O)C(=O)O` [KMTB, ketomethiobutyrate], for which, in assay [1] (setting [8]), the “Apparent Vmax” value is 4.22 ± 0.72 μmol/min/mg protein and the Km is 4200 ± 1790 µM.

`CC(C)C[C@H](N)C(=O)O` [Leu, leucine]: the “amino donor activity” value in assay [1] is reported as “most effective substrates”. The “Apparent Vmax” value worked out at 13.44 ± 0.84 μmol/min/mg protein in assay [1] (setting [7]) and 3.65 ± 0.43 μmol/min/mg protein in assay [1] (setting [6]). Further, the figures for the Km in assay [1] (setting [7]) and in assay [1] (setting [6]) were 6020 ± 940 µM and 2500 ± 900 µM, respectively.

Consider `CC(C)(C)ON` [O-(t-butyl)hydroxylamine], for which the “inhibition of Met formation, ranking at 0.1 mM” value (“inhibition … at 0.1 mM” for short) in assay [2] (1.0 mM KMTB) was “most active”. In assay [2] (setting [9]), the “Kiu (uncompetitive component of mixed-type inhibition)” value is 85.60 ± 44.79 µM. Also, the type of inhibition result in assay [2] is listed as “mixed-type inhibition”. In assay [2] (setting [10]), the Ki was found to be 11 ± 2.76 µM. The MIC in assay [3] (setting [11]) and in assay [4] (setting [13]) was 10000 µM throughout. Besides, the half-maximal inhibitory concentration (IC50) in assay [3] (setting [12]) worked out at 43.2 ± 10.5 µM; in assay [4] (setting [14]) it was 131 ± 23.1 µM.

Take `C=CCON` [O-allylhydroxylamine]: the “inhibition … at 0.1 mM” value in assay [2] (1.0 mM KMTB) is given as “most active”. The “Kiu (uncompetitive component of mixed-type inhibition)” value in assay [2] (setting [9]) is greater than 200 µM. For the same compound, in assay [2], the type of inhibition result is reported as “mixed-type inhibition”. In addition, the Ki in assay [2] (setting [10]) was 21.6 ± 11.1 µM. Moreover, the MIC in assay [3] (setting [11]) stood at 78 µM; in assay [3] (M. marinum, read-out: MIC), 78 µM; in assay [4] (M. tuberculosis, as stated in text (present data), read-out: MIC), 156 µM; in assay [4] (setting [13]) it was 156 µM. Also, the values for the concentration for half-maximal inhibition (IC50) in assay [3] (setting [12]) and in assay [4] (setting [14]) were 8.49 ± 1.96 µM and 39.2 ± 2.01 µM, respectively.

Turning to `NOCc1ccccc1` [O-benzylhydroxylamine], in assay [2] (1.0 mM KMTB), the “inhibition … at 0.1 mM” value is on record as “most active”. Besides, the “Kiu (uncompetitive component of mixed-type inhibition)” value in assay [2] (setting [9]) was 84.08 ± 31.91 µM. Also, the type of inhibition result in assay [2] is reported as “mixed-type inhibition”. Also, the Ki in assay [2] (setting [10]) worked out at 8.2 ± 2.56 µM. Also, the minimum inhibitory concentration (MIC) in assay [3] (setting [11]) and in assay [4] (setting [13]) was 1250 µM each time. In addition, the half-maximal inhibitory concentration (IC50) is 411 ± 67.1 µM in assay [3] (setting [12]) and 468 ± 62.8 µM in assay [4] (setting [14]).

Turning to `C[Si](C)(C)ON` [O-trimethylsilylhydroxylamine], in assay [2] (1.0 mM KMTB), the “inhibition of Met formation” value is recorded as “With the exception of O-trimethylsilylhydroxylamine, all of the compounds inhibited Met formation to some extent”.

On to `N[C@@H](Cc1ccccc1)C(=O)O` [Phe, phenylalanine], for which the “amino donor activity” value in assay [1] is reported as “also active as amino donors”. In addition, in assay [1] (setting [6]), the “Apparent Vmax” value worked out at 2.17 ± 0.22 μmol/min/mg protein and the Km was 7440 ± 1400 µM.

On to `N[C@@H](Cc1ccc(O)cc1)C(=O)O` [Tyrosine], for which, in assay [1], the “amino donor activity” value is recorded as “much lesser ability to transaminate KMTB”.

For `CC(C)[C@H](N)C(=O)O` [Val, valine], the “amino donor activity” value in assay [1] is “most effective substrates”. Also, in assay [1] (setting [7]), the “Apparent Vmax” value was 11.82 ± 0.80 μmol/min/mg protein and the Michaelis-Menten constant (Km) turned out to be 5790 ± 990 µM. For the same compound, in assay [1] (setting [6]), the “Apparent Vmax” value stood at 2.58 ± 0.41 μmol/min/mg protein and the Km came to 1770 ± 860 µM.

Regarding `NOCC[C@H](N)C(=O)O` [canaline], in assay [2] (1.0 mM KMTB), the “inhibition of Met formation” value was “not a particularly good inhibitor”. In assay [3] (Mycobacterium marinum, 192 h), the half-maximal inhibitory concentration (IC50) was determined as 335 ± 13.6 µM and the minimal inhibitory concentration (MIC) amounted to 1250 µM. In assay [4] (setting [15]), the half-maximal inhibitory concentration (IC50) came out at 273 ± 14.6 µM and the minimum inhibitory concentration (MIC) worked out at 1250 µM.

Turning to `NOCC(=O)O` [carboxymethoxylamine], the Ki in assay [2] amounted to 21 ± 7.27 µM. For the same compound, the “inhibition … at 0.1 mM” value in assay [2] (1.0 mM KMTB) is “most active”. In assay [2] (setting [9]), the “Kiu (uncompetitive component of mixed-type inhibition)” value came out at 142.42 ± 69.76 µM. Moreover, the type of inhibition entry in assay [2] is “mixed-type inhibition”. Further, the 50% inhibitory concentration (IC50) in assay [3] (Mycobacterium marinum, 192 h, M. marinum, n = 8, 8 days at 30°C, Middlebrook 7H9, read-out: IC50) amounted to 89.3 ± 7.65 µM; in assay [4] (Mycobacterium tuberculosis, 336 h, M. tuberculosis, n = 6, 14 days at 37°C, Middlebrook 7H9, read-out: IC50), 71 ± 7.83 µM. In addition, the minimal inhibitory concentration (MIC) in assay [3] (Mycobacterium marinum, 192 h, M. marinum, n = 8, 8 days at 30°C, Middlebrook 7H9, read-out: MIC) is 313 µM; in assay [4] (Mycobacterium tuberculosis, 336 h, M. tuberculosis, n = 6, 14 days at 37°C, Middlebrook 7H9, read-out: MIC), 313 µM; in assay [4] (Mycobacterium tuberculosis, M. tuberculosis, as stated in text (present data), read-out: MIC), 313 µM; in assay [5] (ref 35), 910 µM (≈ 82.9 µg/mL); in assay [5] (ref 37), 170 µM (≈ 15.5 µg/mL).

As for `[H]/N=C(/N)N[C@H]1[C@H](O)[C@@H](O)[C@H](O[C@@H]2O[C@@H](C)[C@](O)(C=O)[C@H]2O[C@@H]2O[C@@H](CO)[C@H](O)[C@@H](O)[C@@H]2NC)[C@@H](N/C(N)=N\[H])[C@@H]1O` [streptomycin], the minimum inhibitory concentration (MIC) in assay [3] (Mycobacterium marinum, M. marinum, read-out: MIC) turned out to be 8 µg/mL; in assay [4] (Mycobacterium tuberculosis, M. tuberculosis, read-out: MIC) it was 2 µg/mL.

On to `N[C@@H](Cc1c[nH]c2ccccc12)C(=O)O` [tryptophan], for which the “amino donor activity” value in assay [1] is “much lesser ability to transaminate KMTB”.
